Data set [1] has as its target T1, DNA topoisomerase (Yersinia pestis, UniProt A0A2S9PM60).
T1 sequence (A0A2S9PM60 whole entry): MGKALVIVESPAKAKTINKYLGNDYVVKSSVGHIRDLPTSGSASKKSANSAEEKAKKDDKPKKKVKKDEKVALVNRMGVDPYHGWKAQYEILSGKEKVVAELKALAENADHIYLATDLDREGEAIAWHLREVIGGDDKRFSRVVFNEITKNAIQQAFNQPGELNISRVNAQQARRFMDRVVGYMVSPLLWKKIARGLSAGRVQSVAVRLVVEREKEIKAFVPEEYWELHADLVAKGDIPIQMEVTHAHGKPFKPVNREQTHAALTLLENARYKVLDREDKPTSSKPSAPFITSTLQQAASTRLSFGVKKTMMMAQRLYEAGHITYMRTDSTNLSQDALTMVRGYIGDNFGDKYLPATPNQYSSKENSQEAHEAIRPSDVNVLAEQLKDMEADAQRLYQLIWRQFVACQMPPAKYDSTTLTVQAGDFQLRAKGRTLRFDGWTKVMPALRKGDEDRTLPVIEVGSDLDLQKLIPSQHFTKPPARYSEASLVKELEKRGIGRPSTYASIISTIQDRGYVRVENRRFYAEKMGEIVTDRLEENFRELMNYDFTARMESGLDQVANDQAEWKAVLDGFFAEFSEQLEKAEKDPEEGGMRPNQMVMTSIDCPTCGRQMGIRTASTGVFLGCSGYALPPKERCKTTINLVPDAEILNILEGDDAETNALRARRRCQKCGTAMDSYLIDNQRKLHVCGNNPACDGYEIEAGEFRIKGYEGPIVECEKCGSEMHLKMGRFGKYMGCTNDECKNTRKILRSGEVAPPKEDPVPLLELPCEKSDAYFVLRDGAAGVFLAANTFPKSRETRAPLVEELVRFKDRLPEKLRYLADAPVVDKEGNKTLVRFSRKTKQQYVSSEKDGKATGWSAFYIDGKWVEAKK
Briefly: Y. pestis Topo-I inhibitors, cleavage product readout, dose response, biochemical, cherry-pick (AID 588525).

Data set [2] has as its target T2, Cysteine protease ATG4B (Homo sapiens, UniProt Q9Y4P1).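 Also: Fluorescence-based dose-response confirmation assay measuring inhibition of ATG4B activity.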
T2 sequence (Q9Y4P1 whole entry): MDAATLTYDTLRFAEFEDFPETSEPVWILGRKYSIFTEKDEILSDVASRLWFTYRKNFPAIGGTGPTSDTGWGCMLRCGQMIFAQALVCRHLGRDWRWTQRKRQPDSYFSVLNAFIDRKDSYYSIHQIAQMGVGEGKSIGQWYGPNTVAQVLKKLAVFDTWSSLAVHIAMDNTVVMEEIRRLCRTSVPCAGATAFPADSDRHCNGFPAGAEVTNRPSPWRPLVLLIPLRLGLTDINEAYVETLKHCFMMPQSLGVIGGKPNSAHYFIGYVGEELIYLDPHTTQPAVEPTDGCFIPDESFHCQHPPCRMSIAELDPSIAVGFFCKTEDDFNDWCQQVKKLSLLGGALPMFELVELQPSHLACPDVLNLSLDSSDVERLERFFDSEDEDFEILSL
Type of data set: functional.

Data set [3] addresses Phospholipase A2 (Homo sapiens, UniProt P04054). Format: functional.
In data set [4] the target is Cytochrome P450 2C9 (Homo sapiens, UniProt P11712).
Data set [5] deals with T3, Polyadenylate-binding protein 1 (Homo sapiens, UniProt P11940). Kind of data set: PABP1 MLLE–PAM2 interaction inhibitors, dose response, miRNA deadenylation inhibitor project, biochemical, fluorescence polarization, Cy5-PAM2 peptide, secondary (AID 602260). Format: functional. Conditions: read-out: IC50_Mean. On the technique in general: In fluorescence polarisation assays a small probe gives low polarisation when free and higher when bound to something large.

Data set [6] concerns the target T4, Endoribonuclease toxin MazF (Escherichia coli K-12, UniProt P0AE70).
T4 sequence (P0AE70 whole entry): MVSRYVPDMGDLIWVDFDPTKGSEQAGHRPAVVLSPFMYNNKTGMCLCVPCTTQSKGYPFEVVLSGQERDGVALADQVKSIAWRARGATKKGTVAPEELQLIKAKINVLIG
Briefly: MazF toxin RNase activators, dose response, biochemical, fluorescence, single-stranded RNA substrate, uHTS hits (AID 588481). Type of data set: functional.

Data set [7] has as its target T3, Polyadenylate-binding protein 1. Kind of data set: PABP1 MLLE–PAM2 binding inhibitor potency, dose response, biochemical, fluorescence polarization, FITC-PAM2 peptide (AID 602259). The following applies: read-out: IC50_Mean. Type of data set: functional.
Data set [8] concerns the target T4, Endoribonuclease toxin MazF. Kind of data set: fluorescent RNA oligo signal without MazF, dose response, counter-screen for MazEF activator project, biochemical, fluorescence, single-stranded RNase substrate (AID 588502). Format: functional.
In data set [9] the target is Heat shock protein HSP 90-alpha (Homo sapiens, UniProt P07900). Format: functional, organism-based.
Data set [10] concerns the target Prothrombin (Homo sapiens, UniProt P00734). Kind of data set: Thrombin 1536 HTS Dose Response Confirmation. [Related pubchem assays: 1046 (Thrombin 1536 HTS; hits were confirmed in this assay)]. Format: functional.
Data set [11] has as its target T5, Sentrin-specific protease 7 (Homo sapiens, UniProt Q9BQF6).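 Also: Luminescence-based dose-response confirmation of ultra-high-throughput screening hits, measuring inhibition of SENP7.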
T5 sequence (Q9BQF6 whole entry): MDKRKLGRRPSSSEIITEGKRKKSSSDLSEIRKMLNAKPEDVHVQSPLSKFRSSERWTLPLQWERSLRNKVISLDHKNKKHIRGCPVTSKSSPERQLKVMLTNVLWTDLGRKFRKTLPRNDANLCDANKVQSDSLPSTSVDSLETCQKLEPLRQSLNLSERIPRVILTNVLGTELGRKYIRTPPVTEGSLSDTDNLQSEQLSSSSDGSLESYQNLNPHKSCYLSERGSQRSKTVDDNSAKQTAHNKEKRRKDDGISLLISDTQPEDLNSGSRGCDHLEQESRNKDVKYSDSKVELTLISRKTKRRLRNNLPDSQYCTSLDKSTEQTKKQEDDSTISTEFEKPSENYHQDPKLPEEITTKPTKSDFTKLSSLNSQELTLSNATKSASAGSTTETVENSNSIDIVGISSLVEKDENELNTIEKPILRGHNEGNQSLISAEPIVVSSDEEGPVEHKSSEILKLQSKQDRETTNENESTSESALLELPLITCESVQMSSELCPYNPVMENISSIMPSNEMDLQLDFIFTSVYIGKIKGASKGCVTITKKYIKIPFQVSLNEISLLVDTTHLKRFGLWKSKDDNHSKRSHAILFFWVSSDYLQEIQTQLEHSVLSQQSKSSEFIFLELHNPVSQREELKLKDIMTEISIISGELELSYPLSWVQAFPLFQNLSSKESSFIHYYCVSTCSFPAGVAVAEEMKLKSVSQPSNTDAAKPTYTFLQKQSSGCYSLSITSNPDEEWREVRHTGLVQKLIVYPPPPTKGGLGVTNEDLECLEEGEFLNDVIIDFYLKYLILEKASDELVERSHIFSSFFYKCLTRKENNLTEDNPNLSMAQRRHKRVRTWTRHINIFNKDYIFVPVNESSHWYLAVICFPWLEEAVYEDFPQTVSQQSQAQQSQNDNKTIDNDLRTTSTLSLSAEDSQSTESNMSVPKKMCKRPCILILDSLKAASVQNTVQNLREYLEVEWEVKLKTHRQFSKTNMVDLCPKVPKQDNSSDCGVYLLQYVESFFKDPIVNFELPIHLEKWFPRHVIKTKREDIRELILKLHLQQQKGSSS
Format: functional.

The target of data set [12] is T6, Sentrin-specific protease 8 (Homo sapiens, UniProt Q96LD8).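 Also: luminescence read-out of SENP8 inhibition, dose-response confirmation following an ultra-high-throughput screen.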
T6 sequence (Q96LD8 whole entry): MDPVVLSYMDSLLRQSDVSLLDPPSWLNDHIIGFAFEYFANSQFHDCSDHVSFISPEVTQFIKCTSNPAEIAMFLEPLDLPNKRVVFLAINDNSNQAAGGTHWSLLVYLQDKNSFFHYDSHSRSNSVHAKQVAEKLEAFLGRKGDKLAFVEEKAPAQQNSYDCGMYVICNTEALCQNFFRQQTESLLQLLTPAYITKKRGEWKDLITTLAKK
Format: functional.

Data set [13] concerns the target Luciferin 4-monooxygenase (Photinus pyralis, UniProt P08659). Kind of data set: firefly luciferase enzyme inhibitors, dose response, biochemical, luminescence (AID 1891).
The target of data set [14] is T7, Caspase-3 (Homo sapiens, UniProt P42574).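 Also: Dose-response selectivity test against caspase-3 for candidate inhibitors of sentrin-specific proteases (SENPs).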
T7 sequence (P42574 whole entry): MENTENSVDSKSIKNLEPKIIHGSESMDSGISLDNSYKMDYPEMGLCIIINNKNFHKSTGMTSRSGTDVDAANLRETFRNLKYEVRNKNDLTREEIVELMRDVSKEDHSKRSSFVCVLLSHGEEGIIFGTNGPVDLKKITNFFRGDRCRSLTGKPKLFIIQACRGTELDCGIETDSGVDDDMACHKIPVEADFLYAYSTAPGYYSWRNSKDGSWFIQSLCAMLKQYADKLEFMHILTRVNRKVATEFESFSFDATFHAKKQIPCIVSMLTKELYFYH
Type of data set: functional.

The target of data set [15] is T8, Sentrin-specific protease 6 (Homo sapiens, UniProt Q9GZR1).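 Also: Luminescence-based dose-response confirmatory assay of SENP6 inhibition, following up an ultra-high-throughput screen.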
T8 sequence (Q9GZR1 whole entry): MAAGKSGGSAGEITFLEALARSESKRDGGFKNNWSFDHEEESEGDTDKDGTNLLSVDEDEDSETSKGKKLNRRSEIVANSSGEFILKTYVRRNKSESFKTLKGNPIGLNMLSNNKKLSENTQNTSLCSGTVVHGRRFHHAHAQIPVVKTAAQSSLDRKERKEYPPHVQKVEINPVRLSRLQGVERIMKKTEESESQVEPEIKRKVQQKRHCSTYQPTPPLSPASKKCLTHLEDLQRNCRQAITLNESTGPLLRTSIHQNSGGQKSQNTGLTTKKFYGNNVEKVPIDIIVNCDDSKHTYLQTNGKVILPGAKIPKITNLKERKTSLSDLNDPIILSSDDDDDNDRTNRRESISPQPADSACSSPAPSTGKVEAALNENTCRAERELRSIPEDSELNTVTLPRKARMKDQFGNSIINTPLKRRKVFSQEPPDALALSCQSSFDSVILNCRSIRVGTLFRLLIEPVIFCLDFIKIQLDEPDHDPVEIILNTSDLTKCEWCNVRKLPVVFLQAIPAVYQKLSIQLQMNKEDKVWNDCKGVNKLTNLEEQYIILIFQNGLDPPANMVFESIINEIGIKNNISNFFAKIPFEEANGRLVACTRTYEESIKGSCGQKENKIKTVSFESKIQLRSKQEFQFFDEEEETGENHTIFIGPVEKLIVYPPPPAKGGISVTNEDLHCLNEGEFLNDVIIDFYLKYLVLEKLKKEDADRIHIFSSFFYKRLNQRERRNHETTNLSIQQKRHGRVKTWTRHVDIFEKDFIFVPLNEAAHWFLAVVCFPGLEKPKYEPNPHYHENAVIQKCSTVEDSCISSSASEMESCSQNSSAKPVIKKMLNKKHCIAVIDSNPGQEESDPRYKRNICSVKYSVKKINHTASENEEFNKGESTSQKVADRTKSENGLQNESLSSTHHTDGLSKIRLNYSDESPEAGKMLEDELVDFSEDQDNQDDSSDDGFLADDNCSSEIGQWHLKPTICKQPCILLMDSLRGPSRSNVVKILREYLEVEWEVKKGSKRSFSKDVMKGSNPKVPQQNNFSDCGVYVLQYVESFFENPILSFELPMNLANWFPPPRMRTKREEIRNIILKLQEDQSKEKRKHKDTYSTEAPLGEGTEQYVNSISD
Type of data set: functional.

A short description of data set [16]: Luminescence Cell-Based Dose Confirmation HTS to Identify Inhibitors of Platelet Dense Granule Release. [Related pubchem assays: 1663 (Primary HTS), 1678 (Summary of Project)]. Format: functional.

The values below come from ChEMBL document CHEMBL1201862, “PubChem BioAssay data set” (2004).

The source made the active and inactive calls. Bounds are passed on as bounds.

Phospholipase A2, sequence (P04054 whole entry): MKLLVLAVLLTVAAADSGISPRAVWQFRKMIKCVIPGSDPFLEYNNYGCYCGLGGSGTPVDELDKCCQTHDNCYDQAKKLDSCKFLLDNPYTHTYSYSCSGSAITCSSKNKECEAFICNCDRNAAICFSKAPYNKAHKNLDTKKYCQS
T3 sequence (P11940 whole entry): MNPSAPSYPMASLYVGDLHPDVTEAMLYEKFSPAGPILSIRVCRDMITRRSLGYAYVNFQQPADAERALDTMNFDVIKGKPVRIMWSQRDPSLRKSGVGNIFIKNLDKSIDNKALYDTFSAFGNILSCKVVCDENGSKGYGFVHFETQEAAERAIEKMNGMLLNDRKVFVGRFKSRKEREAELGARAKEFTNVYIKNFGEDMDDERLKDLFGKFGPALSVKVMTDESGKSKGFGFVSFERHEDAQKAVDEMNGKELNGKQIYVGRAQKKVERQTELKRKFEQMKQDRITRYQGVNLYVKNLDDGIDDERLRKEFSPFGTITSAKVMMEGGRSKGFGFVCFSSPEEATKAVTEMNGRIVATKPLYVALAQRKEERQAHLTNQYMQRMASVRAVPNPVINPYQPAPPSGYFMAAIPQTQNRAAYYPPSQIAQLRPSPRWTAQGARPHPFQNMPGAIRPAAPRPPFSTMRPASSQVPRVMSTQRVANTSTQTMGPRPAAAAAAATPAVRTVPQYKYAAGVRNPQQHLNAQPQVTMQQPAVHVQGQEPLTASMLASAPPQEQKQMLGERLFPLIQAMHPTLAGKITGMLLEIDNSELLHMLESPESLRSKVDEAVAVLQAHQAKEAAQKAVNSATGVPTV
Luciferin 4-monooxygenase, sequence (P08659 whole entry): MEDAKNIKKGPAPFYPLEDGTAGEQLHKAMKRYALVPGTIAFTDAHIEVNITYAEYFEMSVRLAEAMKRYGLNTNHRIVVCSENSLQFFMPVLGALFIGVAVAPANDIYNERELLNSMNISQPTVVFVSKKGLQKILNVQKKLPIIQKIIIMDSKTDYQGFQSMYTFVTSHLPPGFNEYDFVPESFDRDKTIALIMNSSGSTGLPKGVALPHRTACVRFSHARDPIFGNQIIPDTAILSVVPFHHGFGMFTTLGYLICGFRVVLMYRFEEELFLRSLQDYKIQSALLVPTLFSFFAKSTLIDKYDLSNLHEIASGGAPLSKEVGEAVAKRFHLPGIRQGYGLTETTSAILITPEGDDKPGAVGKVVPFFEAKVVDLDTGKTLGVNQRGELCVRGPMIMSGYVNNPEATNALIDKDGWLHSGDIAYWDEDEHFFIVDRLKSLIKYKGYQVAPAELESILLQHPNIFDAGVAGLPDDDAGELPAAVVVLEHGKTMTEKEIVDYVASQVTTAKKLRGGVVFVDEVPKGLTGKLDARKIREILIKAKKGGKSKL
Cytochrome P450 2C9, sequence (P11712 whole entry): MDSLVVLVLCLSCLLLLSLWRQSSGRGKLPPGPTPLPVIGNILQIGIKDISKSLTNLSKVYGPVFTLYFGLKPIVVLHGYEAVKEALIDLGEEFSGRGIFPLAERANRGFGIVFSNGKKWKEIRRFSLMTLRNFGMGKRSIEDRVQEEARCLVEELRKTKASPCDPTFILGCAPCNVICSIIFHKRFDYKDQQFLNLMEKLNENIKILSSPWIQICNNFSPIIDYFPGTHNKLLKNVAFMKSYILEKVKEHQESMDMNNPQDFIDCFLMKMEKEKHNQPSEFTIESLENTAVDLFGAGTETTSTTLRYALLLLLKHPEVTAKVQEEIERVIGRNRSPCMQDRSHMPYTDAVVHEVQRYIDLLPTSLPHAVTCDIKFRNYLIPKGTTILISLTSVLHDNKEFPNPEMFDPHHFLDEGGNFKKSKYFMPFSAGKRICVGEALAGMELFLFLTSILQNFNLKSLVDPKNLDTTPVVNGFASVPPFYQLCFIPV

For orientation: AC50 means the midpoint of the concentration-response curve, whichever way the signal moves. Turning to `COc1cc2c(cc1OC)C1=NC(=O)CN1C(SCc1ccc(C)cc1)=N2`, the AC50 in data set [1] was 13.8 µM (active).
As for `O=C(NCc1cccc(C(F)(F)F)c1)c1cc(Cl)cc(Cl)c1`, the IC50 in data set [2] was 41 µM (inactive); in data set [3], 2.38 µM (active). In addition, the AC50 result in data set [4] is “inconclusive”.
On to `CCCCCn1c(SCCC(C)C)nc2c1c(=O)[nH]c(=O)n2C`, for which the AC50 in data set [1] was > 38 µM (inactive).
Turning to `C=CCn1c(SCc2cc(C(C)=O)ccc2OCC)nc2ccccc2c1=O`, the IC50 in data set [2] was 5.1 µM (active); in [3], 1.3 µM (active).
For `O=C(NCc1cccc(C(F)(F)F)c1)N1CCN(S(=O)(=O)c2ccccc2F)CC1`, in that order: 12.5 µM (active) and 7.61 µM (active).
For orientation: EC50 means the midpoint of the concentration-response curve. Regarding `CCOC(=O)[C@H]1[C@H]2COc3ccc(Br)cc3[C@H]2N2C(=O)CN(Cc3ccc(C)cc3)C(=O)[C@@]12C`, the IC50 in data set [5] was > 66 µM (inactive); in data set [7], 49.1 µM (inactive). Further, the 50% effective concentration (EC50) in data set [6] was 4.72 µM (active); in data set [8] it was > 99 µM (inactive).
With `Oc1ccc(Cl)cc1/C=C/c1ccc2cccc(O)c2n1`, the AC50 in data set [9] was 3.87 µM (active). In addition, the figures for the EC50 in data set [6] and in [8] were 44.8 µM (inactive) and > 99 µM (inactive), respectively. For the same compound, in data set [10], the IC50 is on record as > 50 µM (not active).
On to `COc1ccccc1/N=C/c1c(O)oc2ccccc2c1=O`, for which the IC50 was 2.87 µM (active) in [11], > 100 µM (inactive) in data set [12], > 100 µM (inactive) in [14] and > 100 µM (inactive) in [15]. Moreover, the concentration for a half-maximal effect (EC50) in data set [13] was 1.3 µM (active); in data set [16], > 112 µM (not active).
Take `COc1ccc(C(=O)n2nc(-c3ccco3)nc2SC)cc1OC`: the EC50 in data set [6] was > 99 µM (inactive); in data set [8] it was 45.8 µM (inactive). Moreover, the IC50 in [10] is 0.204 µM (active).
